Measured values as given in PMC6526958 (Journal of medicinal chemistry, 2019).
Entries after “also recorded” stand apart in the source; their conditions may differ.

What was measured:
[1] = target: T1, recombinant soluble rat CD73 (Rattus norvegicus, UniProt P21588); experiment: radiometric CD73 assay with [2,8-3H]AMP, recombinant soluble rat CD73; assay type: biochemical; conditions: for fold less active than AOPCP: rat CD73 Ki relative to AOPCP
T1 sequence (P21588 29-551 limits assumed): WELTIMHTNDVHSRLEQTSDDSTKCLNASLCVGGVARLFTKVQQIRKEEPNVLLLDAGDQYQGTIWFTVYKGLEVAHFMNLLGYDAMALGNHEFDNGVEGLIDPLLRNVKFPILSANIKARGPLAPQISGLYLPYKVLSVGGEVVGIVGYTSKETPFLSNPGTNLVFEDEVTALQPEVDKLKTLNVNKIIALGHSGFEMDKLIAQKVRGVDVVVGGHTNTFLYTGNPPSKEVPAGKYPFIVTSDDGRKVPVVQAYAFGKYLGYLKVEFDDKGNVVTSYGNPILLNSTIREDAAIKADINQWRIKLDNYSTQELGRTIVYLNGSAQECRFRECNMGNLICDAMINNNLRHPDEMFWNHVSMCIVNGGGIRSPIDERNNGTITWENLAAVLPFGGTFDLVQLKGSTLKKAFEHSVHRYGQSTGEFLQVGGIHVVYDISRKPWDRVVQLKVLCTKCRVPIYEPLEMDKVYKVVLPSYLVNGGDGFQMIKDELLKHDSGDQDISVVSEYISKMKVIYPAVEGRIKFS

[2] = tested on: recombinant soluble human CD73; experiment: radiometric CD73 assay with [2,8-3H]AMP, recombinant soluble human CD73; assay type: biochemical; conditions: human versus rat CD73
[3] = stability in aqueous solution; assay type: physicochemical; conditions: room temperature
human P2Y6 receptor = human P2Y6 receptor (Homo sapiens, UniProt Q15077); assay type: cell-based; conditions: 9h up to 3.0 µM
Chain of human P2Y6 receptor (Q15077 whole entry): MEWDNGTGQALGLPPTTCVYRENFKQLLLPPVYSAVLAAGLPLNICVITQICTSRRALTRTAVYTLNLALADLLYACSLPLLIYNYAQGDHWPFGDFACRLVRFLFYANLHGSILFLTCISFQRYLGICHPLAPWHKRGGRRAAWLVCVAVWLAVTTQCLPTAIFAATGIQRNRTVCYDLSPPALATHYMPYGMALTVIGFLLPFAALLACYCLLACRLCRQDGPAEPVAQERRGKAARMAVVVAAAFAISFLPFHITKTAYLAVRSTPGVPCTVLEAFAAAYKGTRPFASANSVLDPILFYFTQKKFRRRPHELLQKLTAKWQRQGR

human P2Y14 receptor = target: T2, human P2Y14 receptor (Homo sapiens, UniProt Q15391); experiment: fluorescent antagonist binding competition; conditions: 9h up to 3.0 µM
T2 sequence (Q15391 1-338): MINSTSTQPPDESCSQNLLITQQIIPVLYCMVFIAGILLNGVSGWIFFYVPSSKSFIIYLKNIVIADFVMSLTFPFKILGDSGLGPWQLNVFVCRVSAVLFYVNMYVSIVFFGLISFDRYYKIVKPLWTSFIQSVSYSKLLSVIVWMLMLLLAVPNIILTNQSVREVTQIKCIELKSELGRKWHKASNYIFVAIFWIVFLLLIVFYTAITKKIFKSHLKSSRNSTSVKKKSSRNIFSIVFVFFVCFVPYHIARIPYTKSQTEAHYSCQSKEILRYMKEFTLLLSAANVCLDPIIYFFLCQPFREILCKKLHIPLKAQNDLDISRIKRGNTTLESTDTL

CD73 = CD73 enzyme inhibition assay, control for the triethylammonium salt form; assay type: biochemical; conditions: 500 µM
eN/CD73 in human tonsils = target: T3, eN/CD73 in human tonsils (Homo sapiens, UniProt P21589); experiment: in situ ecto-5′-nucleotidase; assay type: biochemical; conditions: human tonsil cryosections
T3 sequence (P21589 27-574): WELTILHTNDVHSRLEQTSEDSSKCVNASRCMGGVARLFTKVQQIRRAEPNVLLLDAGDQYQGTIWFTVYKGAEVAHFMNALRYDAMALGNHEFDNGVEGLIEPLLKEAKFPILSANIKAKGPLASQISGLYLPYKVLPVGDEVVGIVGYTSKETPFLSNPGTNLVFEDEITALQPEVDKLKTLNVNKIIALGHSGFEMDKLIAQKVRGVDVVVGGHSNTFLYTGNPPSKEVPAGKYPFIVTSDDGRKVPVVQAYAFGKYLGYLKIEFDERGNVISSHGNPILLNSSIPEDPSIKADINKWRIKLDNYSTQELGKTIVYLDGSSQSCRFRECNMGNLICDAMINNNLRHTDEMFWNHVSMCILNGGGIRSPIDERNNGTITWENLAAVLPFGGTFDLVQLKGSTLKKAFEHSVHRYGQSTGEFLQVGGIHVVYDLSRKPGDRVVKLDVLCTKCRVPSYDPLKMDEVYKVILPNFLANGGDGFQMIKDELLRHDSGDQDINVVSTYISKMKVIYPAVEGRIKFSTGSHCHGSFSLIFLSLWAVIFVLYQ

O=c1ccn([C@@H]2O[C@H](COP(=O)(O)CP(=O)(O)O)[C@@H](O)[C@H]2O)c(=O)[nH]1 [4a, Uridine-5′-O-[(phosphonomethyl)phosphonic acid]]
fold less active than AOPCP [1]: 11 fold

O=c1ccn([C@@]23C[C@H]2[C@H](COP(=O)(O)CP(=O)(O)O)[C@@H](O)[C@H]3O)c(=O)[nH]1 [compound 11, (S)-Methanocarbauridine-5′-O-[(phosphonomethyl)phosphonic acid]]
CD73 inhibitory activity (in words) ([1]; rat CD73): inactive

O=c1ccn([C@@H]2O[C@H](COP(=O)(O)CP(=O)(O)O)[C@@H](O)[C@H]2O)c(=S)[nH]1 [4y, 2-Thiouridine-5′-O-[(phosphonomethyl)phosphonic acid]]
CD73 inhibitory activity (in words) ([1]; rat CD73): not tolerated

CCCn1c(=O)ccn([C@@H]2O[C@H](COP(=O)(O)CP(=O)(O)O)[C@@H](O)[C@H]2O)c1=O [4d, 3-Propyluridine-5′-O-[(phosphonomethyl)phosphonic acid]]
CD73 inhibitory activity (in words) ([1]; rat CD73): inactive

CO[C@@H]1[C@H](O)[C@@H](COP(=O)(O)CP(=O)(O)O)O[C@H]1n1cc(C)c(=O)[nH]c1=O [4h, 2′-O-Methyl-5-methyluridine-5′-O-[(phosphonomethyl)phosphonic acid]]
CD73 inhibitory activity (in words) ([1]; rat CD73): inactive

O=c1cc(O)ccn1[C@@H]1O[C@H](COP(=O)(O)CP(=O)(O)O)[C@@H](O)[C@H]1O [compound 10, 3-Deazauridine-5′-O-[(phosphonomethyl)phosphonic acid]]
CD73 inhibitory activity (in words) ([1]; rat CD73): inactive

Nc1nccc2c1ncn2[C@@H]1O[C@H](COP(=O)(O)CP(=O)(O)O)[C@@H](O)[C@H]1O [2f, 3-Deazaadenosine-5′-O-[(phosphonomethyl)phosphonic acid]]
CD73 inhibitory activity (in words) ([1]; rat CD73): inactive

O=c1[nH]/c(=N/OCc2ccc3ccccc3c2)ccn1[C@@H]1O[C@H](COP(=O)(O)CP(=O)(O)O)[C@@H](O)[C@H]1O [9e, N^4-[O-(Naphthalen-2-ylmethoxy)]-cytidine-5′-O-[(phosphonomethyl)phosphonic acid]]
fold more potent at human CD73 as compared to the rat enzyme [2]: 2 to 3 fold

O=C(Nc1ccn([C@@H]2O[C@H](COP(=O)(O)CP(=O)(O)O)[C@@H](O)[C@H]2O)c(=O)n1)c1ccccc1 [7f, 4-Benzoylcytidine-5′-O-[(phosphonomethyl)phosphonic acid]]
stability in aqueous solution [3]: gradual decomposition when left at room temperature over several weeks in aqueous solution to UOPCP (4a) and COPCP (7a); also recorded: decomposition of compound 7f to UOPCP
potency at P2Y6 receptor (in words) (human P2Y6 receptor): potencies in the micromolar range
potency at P2Y14 receptor (in words) (human P2Y14 receptor): potencies in the micromolar range
fold more potent at human CD73 as compared to the rat enzyme [2]: 2 to 3 fold

O=c1ccn([C@@H]2O[C@H](COP(=O)(O)CP(=O)(O)O)[C@@H](O)[C@H]2O)c(=O)n1Cc1ccccc1 [4e, 3-Benzyluridine-5′-O-[(phosphonomethyl)phosphonic acid]]
CD73 inhibitory activity (in words) ([1]; rat CD73): inactive

Nc1ncnc2c1ncn2[C@@H]1O[C@H](COP(=O)(O)O)[C@@H](O)[C@H]1O [AMP, adenosine 5′-monophosphate]
Km ([1]; read-out: Km, rat CD73, substrate AMP): 53 ± 4.1 µM

CCOP(=O)(O)OP(=O)(O)OC[C@H]1O[C@@H](n2ccc(=O)[nH]c2=S)[C@H](O)[C@@H]1O [compound 12]
CD73 inhibitory activity (in words) ([1]; rat CD73): inactive

O=c1[nH]c(=O)n([C@@H]2O[C@H](COP(=O)(O)CP(=O)(O)O)[C@@H](O)[C@H]2O)cc1F [4l, 5-Fluorouridine-5′-O-[(phosphonomethyl)phosphonic acid]]
fold more potent at human CD73 as compared to the rat enzyme [2]: 2 to 3 fold

CCN(CC)CC.Cl [triethylammonium chloride]
reduction of CD73 enzymatic activity (CD73): no reduction of enzymatic activity was detected

Cc1cn([C@@H]2O[C@H](COP(=O)(O)CCP(=O)(O)O)[C@@H](O)[C@H]2O)c(=O)[nH]c1=O [4x, 5-Methyluridine-5′-O-[(phosphonoethyl)phosphonic acid]]
CD73 inhibitory activity (in words) ([1]; rat CD73): complete loss of CD73 inhibition

CCn1c(=O)ccn([C@@H]2O[C@H](COP(=O)(O)CP(=O)(O)O)[C@@H](O)[C@H]2O)c1=O [4c, 3-Ethyluridine-5′-O-[(phosphonomethyl)phosphonic acid]]
CD73 inhibitory activity (in words) ([1]; rat CD73): inactive

Nc1ncnc2c1ccn2[C@@H]1O[C@H](COP(=O)(O)CP(=O)(O)O)[C@@H](O)[C@H]1O [2g, 7-Deazaadenosine-5′-O-[(phosphonomethyl)phosphonic acid]]
fold higher CD73 inhibitory activity compared to AOPCP ([1]; rat CD73): 2 fold

Nc1ccn([C@@H]2O[C@H](COP(=O)(O)CP(=O)(O)O)[C@@H](O)[C@H]2O)c(=O)n1 [7a, Cytidine-5′-O-[(phosphonomethyl)phosphonic acid]]
fold less active than AOPCP [1]: 5 fold

Cn1c(=O)n([C@@H]2O[C@H](COP(=O)(O)CP(=O)(O)O)[C@@H](O)[C@H]2O)cc/c1=N/OCc1ccccc1 [9h, N^4-[O-(4-Benzyloxy)]-3-methyl-cytidine-5′-O-[(phosphonomethyl)phosphonic acid]]
potency at P2Y6 receptor (in words) (human P2Y6 receptor): completely inactive
potency at P2Y14 receptor (in words) (human P2Y14 receptor): completely inactive
inhibition of CD73 catalytic (AMPase) activity in situ (eN/CD73 in human tonsils; 1, 10 and 100 nM, 100 µM AMP): inhibited catalytic activity of CD73 in a concentration-dependent manner, in situ more potently than AOPCP
reversibility of CD73 inhibition (eN/CD73 in human tonsils): highly reversible CD73 inhibitor

O=c1ccn([C@@H]2O[C@H](COP(=O)(O)CCP(=O)(O)O)[C@@H](O)[C@H]2O)c(=O)[nH]1 [4w, Uridine-5′-O-[(phosphonoethyl)phosphonic acid]]
CD73 inhibitory activity (in words) ([1]; rat CD73): complete loss of CD73 inhibition

Nc1ccnc2c1ncn2[C@@H]1O[C@H](COP(=O)(O)CP(=O)(O)O)[C@@H](O)[C@H]1O [2e, 1-Deazaadenosine-5′-O-[(phosphonomethyl)phosphonic acid]]
CD73 inhibitory activity (in words) ([1]; rat CD73): inactive

O=c1[nH]/c(=N/OCc2ccccc2)c(F)cn1[C@@H]1O[C@H](COP(=O)(O)CP(=O)(O)O)[C@@H](O)[C@H]1O [9g, N^4-[O-(4-Benzyloxy)]-5-fluoro-cytidine-5′-O-[(phosphonomethyl)phosphonic acid]]
fold more potent at human CD73 as compared to the rat enzyme [2]: 5 fold
